According to publication PMC6063804 (EJNMMI Research, 2018):
“And” between values parts separate entries of the source, which are not always exact repeats. Identical values can stand only once. Like-named read-outs stand apart in the source and are kept apart here.

Columns and labels:
[1] = cited from earlier work
[2] = format: in vivo, human; conditions: for activity that could not be extracted / mean parent fraction: plasma; for mean parent fraction: all 20 scans
Experimental: All subjects received a radial artery cannula for continuous and manual arterial sampling. For each scan, an arterial input function was obtained using an on-line blood sampler (Veenstra Instruments, Joure, The Netherlands) with a withdrawal rate of 5 mL · min^−1 during the first 5 min and 2.5 mL · min^−1 from 5 to 60 min post injection (p.i.) in order to stay within blood volume sampling constraints. Continuous blood withdrawal was interrupted briefly to manually collect arterial blood samples (10 mL each) at set timepoints (5, 10, 20, 40, 60, 75, 90, 120 min p.i.). In several subjects, an arterial sample was taken immediately before PET and incubated with [^18F]PK-209 at 37 °C to compare radioactivity recovery fractions throughout the 120 min with extracted fractions of the arterial samples taken during PET. The samples were used to measure blood and plasma radioactivity concentrations, whole blood-to-plasma ratios, and plasma metabolite fractions of [^18F]PK-209. For the latter purpose, samples were analyzed using solid-phase extraction combined with HPLC using off-line radioactivity detection.
The final arterial plasma input function was derived using both continuous and discrete arterial blood data. The input function was corrected for plasma to whole blood ratio, metabolites, and time delay. For each scan, two additional plasma input functions were generated to investigate the effect of within-subject and between-subject variability in plasma data. For the within-subject averaged input function, the mean of PET1 and PET2 [^18F]PK-209 parent fractions per subject were used at each of the eight sample timepoints for both scans. For the population-averaged input function, the mean parent fractions for all five subjects in the TRT and ketamine groups (i.e., 10 scans) were taken at each timepoint. The manual arterial blood samples were also used for assessment of the plasma ketamine concentration. The area under the ketamine concentration–time curve was estimated by means of the trapezoidal rule.
The absolute percentage TRT variability of kinetic parameters between test and retest scans was calculated using the equation TRT variability = 2 · (ρretest − ρtest)/(ρtest + ρretest) · 100, where ρ is the kinetic parameter of interest. The between-subject coefficient of variation was calculated as the standard deviation divided by the sample mean · 100. […] SUV from 90 to 120 min (SUV90–120) was calculated as the mean of the last three mid-frame SUV values.

CSc1ccc(Cl)c(NC(=N)N(C)c2cccc(OC[18F])c2)c1 [[^18F]PK-209, 3-(2-chloro-5-(methylthio)phenyl)-1-(3-([^18F]fluoromethoxy)phenyl)-1-methylguanidine]
LogDoct,7.4 [1]: 1.45 | difference in mean blood-to-plasma ratios between test–retest and between baseline–ketamine scans ([2]; all eight measured timepoints): < 3% | peak radioactivity concentration in plasma, mean SUV ([2]; arterial plasma): 17.4 ± 2.8 | plasma radioactivity as % of the peak ([2]; at 3 min): ~ 7% | fractional recovery of radioactivity from plasma ([2]; declined over time, stabilizing): approximately 45% | activity that could not be extracted ([2]; 5 min p.i.): 15 ± 3% | activity that could not be extracted ([2]; 120 min p.i.): 54 ± 4% | mean parent fraction ([2]; 5 min p.i.): 77 ± 7% | mean parent fraction ([2]; 10 min p.i.): 57 ± 9% and 57% | mean parent fraction ([2]; 20 min p.i.): 34 ± 5% and 34% | mean parent fraction ([2]; 60 min p.i.): 19 ± 3% | mean parent fraction ([2]; 120 min p.i.): 14 ± 3% | parent fractions in baseline scans lower than the test–retest group ([2]; subjects 6 to 10, average): 16%
